B1: siRNA77: 19 bp siRNA targeting the region of the ANKRD1 open reading frame encoding the C-terminus, expressed from pSilencer 2.1-U6 hygro vector (nucleic acid)
chain: GATCCCGTGGAACCAAAGCAATATTCTTCAAGAGAGAATATTGCTTTGGTTCCATTTTTTGGAAA
modifications: the letters are possibly those of the target site
notes: 19 bp siRNA targeting the region of the ANKRD1 open reading frame encoding the C-terminus, expressed from pSilencer 2.1-U6 hygro vector
B2: siRNA58: 19 bp siRNA targeting the central portion of the ANKRD1 coding region, expressed from pSilencer 2.1-U6 hygro vector (nucleic acid)
chain: GATCCCGTTCCGTGATATGCTTGAATTTCAAGAGAATTCAAGCATATCACGGAATTTTTTGGAA
modifications: the letters are possibly those of the target site
notes: 19 bp siRNA targeting the central portion of the ANKRD1 coding region, expressed from pSilencer 2.1-U6 hygro vector
B3: siRNA41: 19 bp siRNA targeting the region of the ANKRD1 open reading frame encoding the N-terminus, expressed from pSilencer 2.1-U6 hygro vector (nucleic acid)
chain: GATCCCAGTTCCAGTTGTGAAGGAATTCAAGAGATTCCTTCACAACTGGAACTTTTTTTGGAAA
modifications: the letters are possibly those of the target site
notes: 19 bp siRNA targeting the region of the ANKRD1 open reading frame encoding the N-terminus, expressed from pSilencer 2.1-U6 hygro vector

Assays:
[1] = tested on: human ovarian and breast cell lines; assay: Relative cisplatin sensitivity (IC37) by MTS proliferation assay; assay type: cell-based; settings: 72 hr drug exposure, FIG. 7B
Protocol: FIG. 7. Expression of ANKRD1 in ovarian and breast cell lines. RNA was extracted from a range of normal and malignant ovarian and breast cell lines. ANKRD1 expression was measured by real-time PCR. A. Results are shown as relative mRNA levels, corrected for human P0 (acidic phosphoprotein P0; also known as 36B4, part of the 60S ribosomal RNA complex) and 18S rRNA. All cell lines are human. HOSE 17.1 and BRE-80 are normal ovarian and breast cell lines respectively; the remaining cell lines are malignant. B. Cisplatin (CDDP) sensitivity was determined for 13 of the cell lines. Survival was determined by MTS assay after exposing the cells to drug for 72 hr. The IC37 is shown for each cell line, results are the mean determined from between two and seven independent experiments. Asterix indicates IC37 not determined. C. Association between growth inhibition by cisplatin (IC37) and expression of ANKRD1 mRNA in 13 cell lines.
Relative cisplatin sensitivity was measured in 13 cell lines using a colorimetric proliferation assay. Cells were seeded into 96-well plates in a volume of 100 μl at 500 to 2000 cells per well. […] IC37 values were calculated for each cell line from survival curves, using data generated from between two to seven independent experiments.

SC2 cells [2] = assay: Clonogenic survival of ANKRD1-transfected SC2 clones exposed to cisplatin; assay type: cell-based, Chinese hamster; settings: SC2 clones transfected with rat ANKRD1 cDNA vs untransfected and vector control, 6 μM cisplatin, FIG. 5
Protocol: FIG. 5. […] Rat ANKRD1 cDNA was transfected into SC2 cells and transfected clones selected. ANKRD1-transfected clones were exposed to 6 μM cisplatin and the surviving fraction was measured by clonogenic assay. Survival in 4 transfected clones (SC2+ANKRD1) was compared with untransfected SC2 cells and empty vector-control transfected SC2 cells (SC2+vector).
To determine whether ANKRD1 has the ability to decrease sensitivity to cisplatin, rat ANKRD1 cDNA in the pcDNA3.1 expression vector, under the control of a CMV promoter, (a gift from the laboratory of Prof. L. Kedes, University of Southern California, USA) was transfected into the ANKRD1-deficient, platinum-sensitive SC2 mutant using Lipofectamine 2000 (Invitrogen Life Technologies, Carlsbad, Calif., USA). Transfected clones were selected and maintained in 400 μg/ml G-418 (Gibco-BRL).

CHO-K1 cells = assay: Cisplatin sensitivity by colony formation (clonogenic assay); assay type: cell-based, Chinese hamster; settings: 10 uM cisplatin for 2 hr, colony formation over 6 days, percentage of vehicle-treated control
Protocol: (§1) FIG. 2. Cisplatin sensitivity of CHO cell lines. Parental CHO-K1 and the platinum-sensitive clone SC2 were exposed to a range of cisplatin (CDDP) concentrations for 2 hrs. The drug was then removed and the surviving cell fraction was determined by colony formation over 6 days. Colonies were fixed, stained with 0.1% crystal violet and counted. The results are expressed as a percentage of vehicle-treated control (mean and standard error from duplicate plates in at least three separate experiments) at differing cisplatin (CDDP) concentrations. The present inventors have used a novel approach to identify genes that determine sensitivity to platinum-based chemotherapeutic agents. This strategy utilized the mutant Chinese hamster ovary (CHO) cell line SC2 which is more sensitive to platinum than the parent CHO-K1 cell line. Parental CHO-K1 and mutant CHO cell lines were provided as a gift from Dr I Hickson and Dr C Robson (Imperial Cancer Research Fund, Oxford UK) (Robson, C, et al, 1985). The strategy adopted is outlined in FIG. 1. CHO-K1 cells were mutagenised with ethyl methane sulphonate (EMS). Mutants with altered sensitivity to cisplatin were isolated using replica plating. […] The drug was then removed and the surviving cell fraction was determined by colony formation over 6 days. Colonies were fixed, stained with 0.1% crystal violet and counted. […]

SC2 cells [3] = assay: as above; assay type: cell-based, Chinese hamster; settings: 10 uM cisplatin for 2 hr, colony formation over 6 days, percentage of vehicle-treated control
Protocol: as §1

[4] = tested on: CHO-K1 cells and SC2 cells; assay: Carboplatin and oxaliplatin cell survival by modified MTS assay; assay type: cell-based, Chinese hamster; settings: 2 hr drug exposure, 6 days incubation, FIG. 9
Protocol: FIG. 9. Effect of carboplatin (A) and oxaliplatin (B) on cell survival in CHO-K1 cells (diamonds) and SC2 cells (squares). Cell survival was measured by modified MTS assay. Results are expressed as a percentage of the vehicle-treated control, as a mean and standard error of triplicate wells from six independent experiments. Results were subjected to a paired t-test where * is p<0.05 and ** is p<0.005.
CHO-K1 and SC2 cells were each seeded into 24-well plates, incubated overnight then exposed to a range of concentrations of carboplatin or oxaliplatin for 2 hr. The drugs were removed, wells washed and the growth media replaced. Cells were incubated for 6 days and cell proliferation measured using a modified colorimetric MTS (3-(4,5-dimethylthiazol-2-yl)-5-(3-carboxy-methoxyphenyl)-2-(4-sulfophenyl)-2H-tetrazolium, inner salt) proliferation assay. MTS solution was added to each well and colour development measured on a plate reader at 490 nm.

ANKRD1 = ANKRD1 mRNA by real-time PCR in siRNA transfected CHO-K1 cells; assay type: cell-based, Chinese hamster; settings: pools of stably transfected CHO-K1 cells, relative to parent CHO-K1, FIG. 6A
Protocol: FIG. 6. Increased sensitivity to cisplatin in CHO-K1 cells following reduction of ANKRD1 expression by siRNA. CHO-K1 were transfected with one of three inserts designed to knock-down ANKRD1 expression by targeting regions of the open reading frame encoding the N-terminus (siRNA41; SEQ ID NO: 5), the central portion (siRNA58; SEQ ID NO: 6) or the C-terminus (siRNA77; SEQ ID NO: 7). Pools (P1) of siRNA transfected cells were selected and maintained in hygromycin B. A. ANKRD1 mRNA was measured by real-time PCR. Results are shown as a percentage of the parent CHO-K1 ANKRD1 mRNA levels and corrected for rodent GAPDH (glyceraldehyde-3-phosphate dehydrogenase) and 18S rRNA. B. Cisplatin (CDDP) sensitivity in CHO-K1 and siRNA transfected cells was measured by clonogenic assay. The results are expressed as the mean and standard error of duplicate plates from at least three separate experiments.
To confirm that ANKRD1 was able to modulate platinum sensitivity, the converse hypothesis was tested, that decreasing ANKRD1 expression in the resistant, CHO-K1 cell line would increase sensitivity. Three 19 bp siRNA oligonucleotides were designed to regions encoding the N- and C-terminus as well as to a central portion of the coding region of the CHO ANKRD1 sequence. The sequences of the sense strands of these siRNA oligonucleotides are shown in SEQ ID NOs: 5 (siRNA41), 6 (siRNA58) and 7 (siRNA77). […]
To examine ANKRD1 mRNA expression, 100 ng of cDNA used as templates in real-time PCR using the ABI PRISM 7700 Sequence Detection System (PE Applied Biosystems). Samples were made up in a final volume of 25 μL with Platinum Quantitative PCR Supermix-UDG (Invitrogen) and 250 nM of each primer set. […] Relative concentrations of ANKRD1 and housekeeping genes were determined by comparison of Ct values to a standard curve produced using a sample containing cDNA produced from RNA of known concentration. […]

Row | Molecule | resistance of CHO-K1 cells compared to SC2 cells [4] | ANKRD1 expression (mRNA) (ANKRD1) | further results
1 | N.N.[Cl][Pt][Cl] [cisplatin] | – | – | relative cisplatin response (IC37) ([1]; COLO 316, T-47D and MCF-7 cell lines): among the most resistant; relative cisplatin response (IC37) ([1]; HOSE 17.1, A2780 and PEO1 cell lines): amongst the most sensitive; resistance to cisplatin after ANKRD1 transfection (SC2 cells [2]): increased resistance; cell survival (CHO-K1 cells): greater than 80%; cell survival (SC2 cells [3]): less than 2%
2 | O=C1[O][Pt]2([NH][C@@H]3CCCC[C@H]3[NH]2)[O]C1=O [oxaliplatin] | significantly more resistant | – | –
3 | N.N.O=C([O-])C1(C(=O)[O-])CCC1.[Pt+2] [carboplatin] | significantly more resistant | – | –
4 | B1 | – | similarly reduced | –
5 | B2 | – | similarly reduced | –
6 | B3 | – | virtually ablated | –

Source: patent US8673869B2, “Determinants of sensitivity to chemotherapeutic agents” (Western Sydney Local Health District, priority 2004, dated 2014)
